{"source": "patent US20110152379A1", "about": "“COMPOSITION FOR CONTROL OF AGING AND/OR EXTENSION OF LIFE, CONTAINING DAPSONE AS ACTIVE INGREDIENT” (priority 2008, published 2011)", "key": {"mitochondria": {"system": "mitochondria", "experiment": "Mitochondria structure staining with MitoTracker Red", "assay_type": "cell-based, human", "conditions": "pretreated with DDS or DPI, then 1 mM PQ 24 hours; FIG. 30", "experimental": "The first photograph indicates the stained mitochondria of the non-treated human diploid fibroblast as a control, the second photograph indicates the stained mitochondria of the PQ-treated human diploid fibroblast, the third photograph indicates the stained mitochondria of the human diploid fibroblast that was pretreated with DDS and then was treated with PQ, and the final photograph indicates the stained mitochondria of the human diploid fibroblast that was treated with DPI and PQ together (by using Confocal process). The values of (A, B, C and D: ×4000) is means±SEM (n=3), # is p<0.005 relative CC; and * is p<0.005 relative C.\nThe human diploid fibroblasts were cultured at 24-well plate. After the above experiment materials, i.e., the human diploid fibroblasts, were pretreated and then were treated with PQ for 24 hours, the above cells were treated with MitoTracker Red CMXRos (50 nM), which is a staining material for mitochondria, at 37° C. for 30 minutes. The dye is a marker of function for marking mitochondria through marking a transmembrane potential of mitochondria in a cell. After culturing, the cells were washed with PBS and then fixed with 4% of paraformaldehyde at 4° C. for overnight. […] After washing, the cells were covered with a cover glass and visualized through a fluorescence microscope."}, "[1]": {"system": "cytosolic superoxide anion", "experiment": "Superoxide anion in cell (cytoplasm), DHE", "assay_type": "cell-based", "conditions": "human diploid fibroblast; 1 mM PQ 30 minutes; FIG. 24A", "experimental": "(§1) The cell was treated with 1 mM of PQ for 30 minutes, and then was cultured at 37° C. for 15 minutes after adding oxidant-sensitive fluorescent dyes (A) DHE (5 uM, cytosol specific) and (B) MitoSOX (5 uM, mitochondria specific), respectively. For identifying the change of fluorescence, the excitation and emission wavelength of DHE were measured at 515 and 590 nm and MitoSOX was measured at 520 and 580 nm by using a multiwell plate reader. The results were indicated by calculating the results of three experiments as a control rate (%). The statistical significant was expressed as *, # p<0.005; ** p<0.05.\nThe cell was twice washed with DPBS and Ethidium-DNA that fluoresces was immediately measured at excitation wavelength 515 nm and emission wavelength 590 nm by using Cary Eclipse fluorescence spectrophotometer (Varian, Calif., USA) machine."}, "[2]": {"system": "mitochondria superoxide anion", "experiment": "Superoxide anion in mitochondria, MitoSOX Red", "assay_type": "cell-based", "conditions": "human diploid fibroblast; 1 mM PQ 30 minutes; FIG. 24B", "experimental": "as §1\nMitochondria superoxide anion was measured by using the fluorescence material, i.e., MitoSOX Red. […] The cell was twice washed with DPBS and the fluorescence was immediately measured at excitation wavelength 515 nm and emission wavelength 590 nm by using CEFS [Cary Eclipse fluorescence spectrophotometer (Varian, Calif., USA)] machine."}, "[3]": {"system": "membrane potential of mitochondria", "experiment": "Membrane potential of mitochondria, DiOC6 assay", "assay_type": "cell-based, human", "experimental": "The protein amount of mitochondria constituent complex was measured by using Western Blot using Complex I (20 kDa ND6 subunit), Complex II (30 kDa FeS, non-heme iron protein, SDHB), Complex III (47 kDa core protein 2), Complex IV (18 kDa subunit IV), Complex V (55 kDa subunit a ATP synthase), and the like. […] The membrane potential (Δψm) of mitochondria used DiOC6. […] Since then, the above fibroblast was treated with 40 nM of DiOC6 for 15 minutes. The results were measured by using Cary Eclipse Fluorescence Spectrophotometer (Varian, Calif., USA) and the excitation wavelength and emission wavelength were measured at 480 nm and 520 nm, respectively.\nThe change of membrane potential (Δψm) of mitochondria was measured by using a cationic dye, DiOC6 that is a specific fluorescent material for mitochondria. An aspect of the change was measured by using Fluorescence Spectrophotometer. The cell was cultured in 40 nM DiQC6 for 15 minutes and then the fluorescent material that was left was removed by using PBS. The analysis was performed by using Cary Eclipse fluorescence spectrophotometer (Varian, Calif., USA), and then the excitation wavelength was measured at 480 nm, and the emission wavelength was measured at 520 nm."}, "Escherichia coli OP50": {"system": "Escherichia coli OP50", "experiment": "Growth of OP50 bacteria with PABA and DDS", "assay_type": "cell-based", "conditions": "PABA 10 uM added with DDS; FIG. 1", "experimental": "FIG. 1 is a graph showing the growth degree of bacteria by treating with PABA. […] In order to identify the effect of dapsone on the extending of lifespan, the experiment was performed in the following order. At this time, since dapsone is not a water-soluble material, E. coli was cultured in the medium including dapsone and then was used as a feed for C. elegans. […] The administration of dapsone was started after L4 stage that almost finishes the generation, and the experiment was performed as follows under the condition of 20° C. in order to provide the optimal growth environment: […]"}, "human diploid fibroblast": {"system": "human diploid fibroblast", "experiment": "Survival rate of human diploid fibroblast treated with PQ (CCK-8)", "conditions": "1 mM PQ for 48 hours without any pretreatments", "experimental": "The above cell was cultured by adding Cell Counting Kit-8 for 48 hours and then the survival ability of cell was measured. In addition, DPI (5 uM) was pretreated for 30 minutes and NAC (2 mM) was pretreated for 3 hours, and then 1 mM of PQ was treated as a positive control.\nThe evaluation of survival rate of cell was performed by using Counting Kit (CCK-8) from Dojindo Laboratory Company (Japan). The human diploid fibroblast was cultured at 96-well plate for 24 hours before treating. […] The absorbance was measured at 450 nm."}, "[4]": {"experiment": "DPPH radical scavenging activity in cell-free system", "assay_type": "biochemical", "conditions": "0.1-100 uM; 200 uM DPPH; FIG. 25A", "experimental": "The radical scavenging activity was measured as the reducing power of\nDPPH included in methanol. […] DPPH is a stable free radical, has a thick purple color, and its absorbance is at 517 nm. However, if it reacts with an antioxidant, it has a pale yellow color. The reaction mixture was maintained for 30 minutes at a room temperature without light and then the absorbance was measured at 517 nm. The free radical scavenging activity was calculated as the suppression rate by using the following equation:\n% suppression=[(Absorbance of Control−Absorbance of Sample)/Control Absorbance]×100."}}}
{"smiles": "c1ccc2c(c1)[I+]c1ccccc1-2", "note": "[DPI]", "values": [{"measurement": "shape of mitochondria after PQ (MitoTracker)", "setting": "mitochondria", "value": "recovered, partially"}, {"measurement": "superoxide anion of cytoplasm produced by PQ (DHE assay)", "setting": "[1]", "value": "suppressed"}, {"measurement": "production of superoxide anion in the mitochondria", "setting": "[2]", "value": "suppress"}, {"measurement": "decrease of membrane potential induced by PQ", "setting": "[3]; pretreated with DDS (3 hours) or DPI (30 minutes), then 1 mM PQ 24 hours, FIG. 29B", "value": "meaningfully maintained"}]}
{"smiles": "CC(=O)N[C@@H](CS)C(=O)O", "note": "[NAC, N-acetyl-L-cystein]", "values": [{"measurement": "superoxide anion of cytoplasm produced by PQ (DHE assay)", "setting": "[1]", "value": "suppressed"}, {"measurement": "production of superoxide anion in the mitochondria", "setting": "[2]", "value": "suppress"}]}
{"smiles": "Nc1ccc(C(=O)O)cc1", "note": "[PABA, para-aminobenzoic acid]", "values": [{"measurement": "growth rate of bacteria relative to control", "setting": "Escherichia coli OP50", "value": 80, "unit": "%"}]}
{"smiles": "C[n+]1ccc(-c2cc[n+](C)cc2)cc1", "note": "[PQ, paraquat]", "values": [{"measurement": "membrane potential of mitochondria compared with the control", "setting": "[3]; human diploid fibroblast, 1 mM PQ for 24 hours", "value": 76.8, "unit": "%"}, {"measurement": "viability of human diploid fibroblast compared with the non-treated control", "setting": "human diploid fibroblast", "value": "about 58.8%"}]}
{"smiles": "Cc1c(C)c2c(c(C)c1O)CCC(C)(C(=O)O)O2", "note": "(stereo not shown) [Trolox]", "values": [{"measurement": "activity of removing ROS on DPPH in the test tube", "setting": "[4]", "value": "strong activity of removing ROS"}]}
